Literature values, collected in patent publication US6818672B1, “Treating endometriosis or infertility, or improving fertility” (Columbia Laboratories, Inc., priority 1999, dated 2004).

How the values were obtained:
[1] = intravenous administration
[2] = test system: myometrial activity, uterine blood flow, lower abdominal pain

Bioavailability (after oral administration, extensive first-pass sulphation): 15 and 20%
Decrease of bioavailability by concomitant food intake (oral administration with concomitant food intake): 30%
Structure (SMILES): CC(C)(C)NCC(O)c1cc(O)cc(O)c1 (centres unmarked) [terbutaline, 5-[2-[(1,1-dimethylethyl)amino]-1-hydroxyethyl]-1,3-benzenediol]
Adverse effects [1]: palpitations and peripheral tremors
Duration of effect of each spray ([2]; terbutaline inhalation, severe pain in essential dysmenorrhea): 1 h
Effect on myometrial activity, uterine blood flow and pain in dysmenorrhea ([2]; women with primary dysmenorrhea): inhibit myometrial activity, increase blood flow to the uterus, and relieve the pain
